{"source": "patent US8283154B2", "about": "“Method of decontaminating polluted environments with bacteria on a porous support” (National Institute for Agro-Environmental Sciences …, priority 2005, dated 2012)", "origin": "cited, not measured here"}
{"smiles": "Clc1c(Cl)c(Cl)c(Cl)c(Cl)c1Cl", "note": "[HCB, hexachlorobenzene]", "values": [{"measurement": "aqueous solubility", "value": 0.005, "unit": "ppm"}]}
